According to publication PMC5526551, “New hydrazonoindolin-2-ones: Synthesis, exploration of the possible anti-proliferative mechanism of action and encapsulation into PLGA microspheres” (PLoS ONE, 2017):

How the values were obtained:
A549 = assay: Cell viability assay of free 7e and 7e-loaded microspheres; assay type: cell-based, human
Experimental: Cell viability assay: The cell viability assay was performed as described in the section of anti-proliferative activity in the supplementary materials.
The human lung cancer A549 cell line was incubated with various concentrations (0.8, 1.6, 3.13, 6.25, 12.5, 25 and 50 μM) of both free 7e and 7e-loaded microspheres to evaluate the anti-proliferative activity by assessing their effect on cell viability.
A549, HT-29, ZR-75 were obtained from the American Type Culture Collection (ATCC). Cells were harvested from 90-95% confluent 10 cm dishes, and diluted in growth media (RPMI-1640 supplemented with 5% fetal bovine serum). An appropriate concentration of cells were prepared to add 1,250 cells in a volume of 25 µL per well in tissue culture treated Griener 384-well microplates, then incubated overnight at 37°C. Compound 7e was diluted to a concentration of 30 µM in DMSO. Concentrated dosing solutions of twice the final concentration were prepared by dilution of the DMSO stocks 1:500 in growth media. Two-fold serial dilutions were then prepared in medium containing 0.2% DMSO to maintain a constant concentration of vehicle throughout the concentration range of the compound. Each of these was added in an equal volume (25 µL) to four wells on each cell assay plate, along with the vehicle control. The highest concentration for serial dilutions of the positive control (sunitinib) was prepared exactly as the experimental compound 7e. […]
At the end of the treatment period, assay plates were allowed to cool to RT for 10 min prior to the addition of 25 µL per well Promega CellTiterGlo reagent, followed by additional 10 min incubation at RT. The resulting luminescence was quantitated using a Molecular Devices Spectramax Paradigm.

[1] = test system: Caspase 3/7 activity in A549 cells; assay: Apoptosis and caspase 3/7 activity (CaspaseGlo 3/7 luminescence); assay type: cell-based, human; details: for Increase in caspase 3/7 activity: A549, 10 μM
Experimental: Compound 7e was analyzed for apoptosis inducing activity in cancer cells. These studies were carried out using cells derived from human lung (A549).
Fig 4 A-549 human lung cancer cells were treated with 3.3 and 10 μM 7e over a time course from 2–48 h. Caspase 3/7 activity was measured by a luminescence-based homogenous assay.
A549 cells were harvested from a 90% confluent 10 cm dish and diluted in growth medium. An appropriate concentration of cells were prepared to add 1,250 cells in a volume of 25 µL per well in tissue culture treated Corning 384-well microplates, then incubated overnight at 37°C. A single cluster of four wells containing no cells was included to serve as a background (no cell) control. Compound 7e was diluted in DMSO to concentrations […].
Concentrated dosing solutions of twice the final concentration were prepared by dilution of the DMSO stocks 1:500 in growth media. Three-fold dilutions of each dosing medium was then prepared in medium containing 0.2% DMSO to maintain a constant concentration of vehicle throughout the concentration range of the compound. Each of these was added in equal volume (25 µL) to four wells on each cell assay plate, along with the vehicle control. Cells were incubated with the compounds for a further 48 h. After 24 h, a separate group of cells was treated identically for 24 h. Likewise, groups of cells were treated for durations of 16, 8, 4 and 2 h.
At the end of the treatment period, assay plates were allowed to cool to RT for 10 min prior to addition of 25 µL per well Promega CaspaseGlo 3/7 reagent, followed by an additional 10 min incubation at RT. The resulting luminescence was quantitated using a Molecular Devices Spectramax Paradigm.
The average mean value of the background “no cell” control sample wells were subtracted from all vehicle and test compound wells.Fold-change in caspase activity was then calculated by dividing the mean sample value for each treatment time point by the mean vehicle value for the corresponding time.

[2] = In vitro 7e release (vial method, phosphate buffer pH 7.4); assay type: physicochemical; details: after 5 days, pH 7.4, 37°C
Experimental: In vitro7e-release: Studies on the in vitro release of 7e from microspheres were carried out using the vial method as reported by Dubey et al.. Compound 7e-PLGA-microspheres containing 5 mg equivalent of compound 7e were suspended in a vial containing phosphate buffer (10 mL, pH 7.4) with 0.3% Tween 80 to improve the solubility of 7e. The vial was incubated in a water bath at 37 ± 0.5°C and vibrated horizontally at speed of 100 rpm. In vitro 7e release was assessed by intermittently sampling the vial (2 mL) at predetermined time intervals (1, 2, 3, 4, 5, 6, 10, 12, 15, 18, 20 and 21 days), then replacing the volume with 2 mL of fresh phosphate buffer.
In vitro 7e release was assessed in phosphate buffer (pH 7.4) containing a surfactant to simulate the physiological milieu and maintain sink conditions. Samples were incubated at 37°C, and the amount of 7e was determined using a UV spectrophotometer. […] On the other hand, the release of compound 7e from the raw powder was faster than its release from the microspheres, as 65% of 7e was released after 5 days. This uncontrolled burst release of compound 7e from raw powder could result in too high local concentration which could lead to severe local tissue injure and hamper appropriate delivery to the target.

[3] = test system: HT-29, ZR-75 and A-549 cell lines; assay: Average anti-proliferative activity over the three cancer cell lines; assay type: cell-based, human; details: Homo sapiens, average of HT-29, ZR-75, A-549; for inhibition at 30 µM: read-out: Average Growth Inhibition %
Experimental: Twenty compounds, i.e. 4a-o and 7a-e, were analyzed for cancer cell growth inhibitory activity. These studies were carried out using cells derived from human lung, colon and breast tumors (A549, HT-29 and ZR-75 cells, respectively). This initial assessment of activity tested each compound in quadruplicate at a single concentration of 30 μM, if solubility permitted.
Therefore, they were subjected to quantitative inhibitory concentration 50% (IC50) determination for their cell growth inhibitory activity towards the A549, HT-29 and ZR-75 cancer cell lines.
A549, HT-29, ZR-75 were obtained from the American Type Culture Collection (ATCC). Cells were harvested from 90-95% confluent 10 cm dishes, and diluted in growth media (RPMI-1640 supplemented with 5% fetal bovine serum). An appropriate concentration of cells were prepared to add 1,250 cells in a volume of 25 µL per well in tissue culture treated Griener 384-well microplates, then incubated overnight at 37°C. Compound 7e was diluted to a concentration of 30 µM in DMSO. Concentrated dosing solutions of twice the final concentration were prepared by dilution of the DMSO stocks 1:500 in growth media. Two-fold serial dilutions were then prepared in medium containing 0.2% DMSO to maintain a constant concentration of vehicle throughout the concentration range of the compound. Each of these was added in an equal volume (25 µL) to four wells on each cell assay plate, along with the vehicle control. The highest concentration for serial dilutions of the positive control (sunitinib) was prepared exactly as the experimental compound 7e. Cells were incubated with the compounds for a further 72 h.
The potency of compounds was determined using the non-linear dose response algorithm (four-parameter logistic fit) with GraphPad Prism 5 software.

## O=C1Nc2ccc(Br)cc2C1=NN=C1C(=O)N(Cc2ccccc2)c2ccccc21 [Compound 7e, 1-Benzyl-3-((5-bromo-2-oxoindolin-3-ylidene)hydrazono)indolin-2-one]
A549; A549, 0.8 μM, 24 h
  Reduction in cell viability: no cytotoxicity
A549; A549, 1.6 μM, 24 h
  Reduction in cell viability: no cytotoxicity
A549; A549, 1.6 μM, 72 h
  Reduction in cell viability: 30%
A549; A549, 3.1 μM, 72 h
  Reduction in cell viability: 70%
A549; A549, 3.1 μM, 120 h
  Reduction in cell viability: almost total inhibition
A549; A549, 3.13 μM, 24 h
  Reduction in cell viability: 20%
A549; A549, 6.25 μM, 24 h
  Reduction in cell viability: remarkable reduction
A549; Homo sapiens, A549, 24 h of incubation, read-out: IC50 toward A549 cells
  IC50: 6.51 µM
[1]; 4 h
  Increase in caspase 3/7 activity: 2.4 fold
[1]; 8 h
  Increase in caspase 3/7 activity: 1.85 fold
[1]; A549, lower tested concentration (3.3 μM)
  Effect on caspase 3/7 activity: no effect
other
  melting point: 265 to 267 °C
[2]
  Cumulative in vitro release of 7e: 65%
[3]
  inhibition at 30 µM: 96.3%
  IC50: 2.37 µM

## CCN(CC)CCNC(=O)c1c(C)[nH]c(/C=C2\C(=O)Nc3ccc(F)cc32)c1C [Sunitinib, sunitinib, reference compound]
[3]
  inhibition at 30 µM: 78.7%
  IC50: 8.11 µM
